EP3909646A1 (priority 2020, dated 2021)
Entries after “also recorded” stand apart in the source; their conditions may differ.

Assays:
ACE2 = assay type: cell-based, human
TMPRSS2 = assay type: cell-based, human; details: Fig.4E
primary NHBE [1] = assay type: cell-based, human
SARS-CoV-2 = assay type: cell-based
primary NHBE [2] = details: uninfected primary NHBE, different doses titrated, Fig.1C

Compound | ACE2 gene expression (microarray, confirmed by qPCR) (ACE2) | ACE2 gene expression (qPCR) (ACE2) | TMPRSS2 gene expression (microarray, confirmed by qPCR) (TMPRSS2; 10 µM hydrocortisone, uninfected cells) | TMPRSS2 gene expression (qPCR) (TMPRSS2; 24h pre-treatment 10 µM hydrocortisone, uninfected and virus-infected NHBE, with or without IFN-γ) | genes that may support the cytokine storm (gene expression) (primary NHBE [1]) | type I interferons IFNB1 and IFNE and type III interferons such as IFNL3 (gene expression) (primary NHBE [1]) | APOBEC3A gene expression (primary NHBE [1]; Fig.4A) | known and potential virus entry receptors (gene expression) (primary NHBE [1]; Fig.4C) | genes upregulated by SARS-CoV-2-infection, but downregulated by drug (primary NHBE [1]; Venn diagram, Fig.3E) [genes] | genes reduced by SARS-CoV-2-infection, but increased by drug (primary NHBE [1]; Venn diagram, Fig.7C) [genes] | global gene expression changes (primary NHBE [1]; icatibant 1 µM or hydrocortisone 10 µM, volcano plots, Fig.3D) | antiviral epithelial response (gene expression) (primary NHBE [1]; in general, Fig.4A) | antiviral response genes significantly downregulated (primary NHBE [1]; over all conditions, Fig.8A) | transcripts regulated by both, hydrocortisone and icatibant (primary NHBE [1]; overlap of the two drugs, majority long non-coding RNAs, Fig.3E) [transcripts] | virus titers / infectious viral particles in supernatant (plaque forming units) (SARS-CoV-2) | potential cytotoxicity (LDH) (primary NHBE [2]) | infection-mediated cytotoxicity (LDH), rescue (SARS-CoV-2 infected NHBE; 1 µM icatibant added 6h post-inoculation, Fig.5F) | infection-mediated cytotoxicity (LDH) (SARS-CoV-2 infected NHBE; 24h pre-treatment 1 µM icatibant, then 24h SARS-CoV-2 inoculation, n=12, Fig.5E)
C[C@]12CCC(=O)C=C1CC[C@@H]1[C@@H]2[C@@H](O)C[C@@]2(C)[C@H]1CC[C@]2(O)C(=O)CO [hydrocortisone] | upregulation of ACE2 and TMPRSS2 on the transcriptional level of uninfected cells | did not change | upregulation of ACE2 and TMPRSS2 on the transcriptional level of uninfected cells | still enhanced TMPRSS2 expression in both, uninfected and virus-infected NHBE | not significantly influenced | even slightly enhanced | even increased | rather enhances receptors, like TMPRSS2, 11B and 11E proteins | 300 | 198 | almost balanced relationship between suppression and induction of gene expression | changes of the antiviral epithelial response were not induced | significantly reduced DNAJC3, CREBZF, GPAM, BNIP3L and FAM111A | 86 | no adverse effect on the virus titers; also recorded: did not reduce virus titers |  |  | 
NC(N)=NCCC[C@@H](N)C(=O)N[C@@H](CCCN=C(N)N)C(=O)N1CCC[C@H]1C(=O)N1C[C@H](O)C[C@H]1C(=O)NCC(=O)N[C@@H](Cc1cccs1)C(=O)N[C@@H](CO)C(=O)N1Cc2ccccc2C[C@@H]1C(=O)N1[C@H](C(=O)N[C@@H](CCCN=C(N)N)C(=O)O)C[C@@H]2CCCC[C@@H]21 [icatibant] |  |  |  |  |  |  |  |  |  |  |  |  |  |  |  | no toxic effects in NHBE cell cultures, but even exhibits a cell-protecting effect | significantly reduced | significantly reduced
